Assay [1] has as its system A2780. Nature of the assay: Cell cycle arrest in human A2780 cells assessed as accumulation at G2 phase at 30 uM by propidium iodide staining-based FACS analysis (reference value: 15.721 %). It counts as functional.
Assay [2] relates to A2780. Nature of the assay: Induction of apoptosis in human A2780 cells assessed as secondary necrotic cells at 30 uM after 24 hrs by annexin V/propidium iodide staining-based FACS analysis (reference value: 9.71%). It counts as functional. For orientation: A flow cytometer gives signals particle by particle.
Assay [3] has as its system NIH3T3. Nature of the assay: Cytotoxicity against mouse NIH/3T3 cells after 96 hrs by SRB assay. The settings on record: NIH3T3, 96 h. It counts as ADME, cell-based.
Assay [4] has as its system A2780. Nature of the assay: Induction of apoptosis in human A2780 cells assessed as necrotic cells at 30 uM after 24 hrs by annexin V/propidium iodide staining-based FACS analysis (reference value: 1.78%). The assay is classed as functional.
Assay [5] has as its system A2780. Nature of the assay: Cell cycle arrest in human A2780 cells assessed as accumulation at G0/G1 phase at 30 uM by propidium iodide staining-based FACS analysis. The assay is classed as functional.
For assay [6], the system named is A2780. Nature of the assay: Cell cycle arrest in human A2780 cells assessed as accumulation at S phase at 30 uM by propidium iodide staining-based FACS analysis (reference value: 32.439 %). It counts as functional.
Assay [7] concerns A549. Nature of the assay: Cytotoxicity against human A549 cells after 96 hrs by SRB assay. The assay is classed as functional, cell-based. Conditions: A549, 96 h. (The SRB assay estimates cell density from bound dye.)
Assay [8] concerns 8505C. Nature of the assay: cells. The settings on record: Homo sapiens, 96 h. The assay is classed as functional, cell-based.
Description: Cytotoxicity against human 8505C cells after 96 hrs by SRB assay
The test system of assay [9] is HT-29. Nature of the assay: Cytotoxicity against human HT-29 cells after 96 hrs by SRB assay. The assay is classed as functional, cell-based. Conditions: HT-29, 96 h.
Assay [10] has as its system A2780. Nature of the assay: Cytotoxicity against human A2780 cells after 96 hrs by SRB assay. It counts as functional, cell-based. Conditions: A2780, 96 h.
Assay [11] has as its system MCF7. Nature of the assay: Cytotoxicity against human MCF7 cells after 96 hrs by SRB assay. The assay is classed as functional, cell-based. Conditions: MCF7, 96 h.
Assay [12] deals with A2780. Nature of the assay: Induction of apoptosis in human A2780 cells assessed as vital cells at 30 uM after 24 hrs by annexin V/propidium iodide staining-based FACS analysis (reference value: 82.15%). It counts as functional.
In assay [13] the test system is A2780. Nature of the assay: Induction of apoptosis in human A2780 cells assessed as necrotic cells at 30 uM after 24 hrs by annexin V/propidium iodide staining-based FACS analysis (reference value: 6.37%). The assay is classed as functional.
In assay [14] the test system is A2780. Nature of the assay: Cell cycle arrest in human A2780 cells assessed as accumulation at G1 phase at 30 uM by propidium iodide staining-based FACS analysis (reference value: 51.839 %). It counts as functional.
The nature of assay [15]: Cytotoxicity against human 518A2 cells after 96 hrs by SRB assay. It counts as functional, cell-based. Conditions: 518A2, 96 h.

Usually IC50 stands for the point on the concentration scale where inhibition reaches its midpoint. Higher therefore signals lower potency.

SMILES strings stand for the structures. A value given as a limit tells only on which side of the number the result lay.

Consider `COC(=O)[C@]12CCC(C)(C)C[C@H]1[C@H]1C(=O)C[C@@H]3[C@@]4(C)CC[C@H](OC(C)=O)C(C)(C)[C@@H]4CC[C@@]3(C)[C@]1(C)CC2`, for which the Activity in assay [1] is listed as 14.004%; in assay [2] it was 12.96%; in assay [4], 0.96%; in [5], less than 20%; in assay [6], 24.431%; in assay [12] it was 75.08%. Moreover, the Activity in assay [13] was 11%; in assay [14], 61.565%. Also, the IC50 was 28.2 µM in assay [3]; greater than 30 µM in [7]; 31.1 µM in assay [8]; 46.8 µM in assay [9]; greater than 30 µM in assay [10]; greater than 30 µM in assay [11]. In [15], this molecule registered an IC50 of 40.8 µM.

Values taken from ChEMBL document CHEMBL3108738, “The chemical and biological potential of C ring modified triterpenoids” (Eur J Med Chem, 2014).
